Laboratory results as given in patent US20150329498A1, “IRAK INHIBITORS AND USES THEREOF” (Nimbus Iris, Inc., priority 2014, published 2015).

Legend:
IRAK4 = target: T1, IRAK4 (Homo sapiens, UniProt Q9NWZ3); test: IRAK-4 activity inhibition assay (Caliper); assay type: biochemical; conditions: 3.5 nM IRAK4, 1.5 μM Peptide 8, 37 μM ATP
T1 construct: purchased CARNA Bioscience 09-145
T1 sequence (Q9NWZ3 1-460): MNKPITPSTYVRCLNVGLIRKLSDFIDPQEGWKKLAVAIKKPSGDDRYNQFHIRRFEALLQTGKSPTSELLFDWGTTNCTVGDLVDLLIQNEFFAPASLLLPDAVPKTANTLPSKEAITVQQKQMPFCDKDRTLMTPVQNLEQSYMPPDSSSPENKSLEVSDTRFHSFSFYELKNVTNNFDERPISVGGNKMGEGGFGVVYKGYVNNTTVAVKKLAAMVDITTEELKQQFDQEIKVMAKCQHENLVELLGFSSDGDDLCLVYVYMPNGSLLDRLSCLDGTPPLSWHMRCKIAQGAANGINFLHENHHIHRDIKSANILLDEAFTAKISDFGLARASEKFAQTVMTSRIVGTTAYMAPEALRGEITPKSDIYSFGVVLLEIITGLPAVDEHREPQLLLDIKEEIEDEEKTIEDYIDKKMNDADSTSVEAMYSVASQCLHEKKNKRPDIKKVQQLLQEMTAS
How it was run: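 Mobility-shift (Caliper) assay with 3.5 nM IRAK4 in 50 mM HEPES pH 7.5, 0.0015% Brij-35, 5 mM MgCl2, 1 mM MnCl2, 2 mM DTT. Enzyme preincubated with compound 10 min at room temperature, then 1.5 μM peptide 8 and 37 μM ATP for 40 min. Inhibition from conversion % relative to DMSO and no-enzyme controls; 10-point IC50.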

[1] = tested on: IFNα production in human white blood cells (hWBC); test: CpG induced IFNα production in hWBC; assay type: cell-based; conditions: 0.5 uM CpG, 20 hours
Description: Compounds of the present invention were also studied in in vitro cytokine production assays. Exemplary protocols follow.
Human whole blood and hWBC assays: Human whole blood was diluted by combining whole blood with no serum RPMI medium at a ratio of 1:1. 180 ul/well of the diluted whole blood/well was added to a 96 well plate. For WBC assay 100,000 cells/well were seeded in a 96-well plate with a volume of 100 ul/well. To make the compound master plate 9 ul of 30 mM compound solution was added into the wells in the assigned rows, then serial solutions with 4x dilutions were made in DMSO. That is, 9 uL of 100% DMSO were added into each of the rest wells and 3 uL of compound solution was taken from the one-step higher concentration solution and mixed well with the DMSO. An intermediate compound dilution plate was made by mixing 4 uL of the compound solution from the compound master plate with 196 uL of no serum RPMI medium. hWBC or human whole blood was treated for 0.5 hour by adding 20 uL/well of the compound and the control solutions from the intermediate compound plate to the cell plate. 80 uL/well or 20 uL/well of stimulant were then added to the human whole blood or hWBC respectively. […] The supernatants were then collected and cytokine levels were measured with ELISA for TNFα (R&D Systems, #DY210) and IFNα (R&D Systems, #41100-2) per manufacturer's instruction.

[2] = tested on: LPS induced TNF alpha production; test: Inhibition of LPS induced TNFα production in vivo; conditions: female Lewis rats, dosed PO 2 hours prior to LPS IV, serum TNFα after 1 hr; minimum efficacious dose
Description: Selected compounds were tested in vivo in female Lewis rats for LPS induced TNF alpha production by dosing PO for 2 hours prior to LPS administration IV, followed by bleeding after 1 hr for measurement of TNFα produced in serum using ELISA (Biosource). […] Compounds having an activity designated as “A” provided a MED<5.0 mg/kg; compounds having an activity designated as “B” provided a MED of 5.0-20 mg/kg; compounds having an activity designated as “C” provided a MED of 20-50 mg/kg; compounds having an activity designated as “D” provided a MED of >50 mg/kg

Question: `N#Cc1ccc2ncnc(N[C@H]3CC[C@H](N4CCOCC4)CC3)c2c1` [Compound I-3, 4-(((1r,4r)-4-morpholinocyclohexyl)amino)quinazoline-6-carbonitrile] was tested. Which IC50 (IRAK4) did it give?
Answer: ≤ 5 µM

Question: And the IC50 [1]?
Answer: 1 to 10 µM

Question: And the “MED (mg/kg)” value [2]?
Answer: C (MED of 20-50 mg/kg)

Question: Which results are given for `N#Cc1ccc2ncnc(N[C@H]3CC[C@H](N4CCC5(CC4)CC5)CC3)c2c1` [Compound I-7, 4-(((1r,4r)-4-(6-azaspiro[2.5]octan-6-yl)cyclohexyl)amino)-quinazoline-6-carbonitrile]?
Answer: IC50 (IRAK4): ≤ 5 µM; IC50 [1]: ≤ 0.25 µM; MED (mg/kg) [2]: A (MED<5.0 mg/kg)
